Test system: Metabolism protein genes
Test: DNA chip mRNA expression in yeast, metabolism protein genes (Table 7)
Type: cell-based, Saccharomyces cerevisiae S288C
Description: Yeast (Saccharomyces cerevisiae S288C (α SUC2mal mel gap2 CUP1)) were incubated at 25° C. on YPD medium (yeast extract 1%, polypepton 2%, glucose 2%). One of toxic chemical substances was added to the cells at logarithmic growth phase, and the cells were further incubated for two hours. Cells were cultured without any chemical substance in the same condition, and were used as control. Concentrations of the chemical substances were defined to inhibit the growth of the yeast but not lead to death.
After completion of the incubation, the culture was centrifuged to collect the cells. To the cells, sodium acetate buffer (50 mM sodium acetate, 10 mM EDTA, 1% SDS) was added, and the mixture was shaken at 65° C. for five minutes, followed by returning to room temperature, and obtaining the supernatant, of which the procedures were repeated two times. To the supernatant, ½ amount of a solution of phenol/chloroform was added, and the mixture was centrifuged to give a supernatant, which was added with an equal amount of chloroform, and the mixture was centrifuged to give a supernatant. To the supernatant, an equal amount of isopropanol containing 0.3 M sodium acetate was added, and the mixture was allowed to stand at room temperature for 30 minutes, after which the mixture was centrifuged to give a sediment of the whole RNAs. Seventy % ethanol was added to the sediment, and the mixture was again centrifuged to give a sediment, which was then dried and dissolved in water. mRNA was isolated from the whole RNAs as followings. In view of the fact that a poly A chain is attached to the 3′ terminus of mRNA, a polynucleotide having a poly T structure which was immobilized on the surface of latex beads was used to trap the mRNA, and then the mRNA was washed and eluted with spine column (Oligotex-dT30<Super>mRNA Purification Kit, Takara). Reverse transcription of the mRNA was conducted with a reverse transcriptase (Super Script II Reverse Transcriptase; catalogue No. 18064-014, GibcoBRL) using fluorescence-labeled nucleotides to give cDNAs that were introduced with Cy3-dUTP or Cy5-dUTP during the reverse transcription.
The labeled cDNAs were dissolved in TE buffer (10mM Tris-HCl/1 mM EDTA, pH8.0), and the solution was dropped on the DNA chip containing the whole genes of yeast (DNA Chip Research Inc. Japan) so that the cDNAs were hybridized on the DNA chip at 65° C. for over 12 hours. The fluoresces intensity of the DNA chip was read with a scanner, and the ratio relative to the fluorescence intensity resulting from the absence of chemical substance was estimated as the following, which is shown in Tables 1 to 9: […]

**Q.** What does the source list for `[Cl][Cd][Cl]` [(2), CdCl2]?
**A.** The level of expressed mRNA in the presence of chemical substance/The level of expressed mRNA in the absence of chemical substance (yeast gene YAL012W): 6.5; The level of expressed mRNA in the presence of chemical substance/The level of expressed mRNA in the absence of chemical substance (yeast gene YAL038W): 1.0; level of expressed mRNA in the presence/in the absence of chemical substance (yeast gene YBR003W): 0.8; level of expressed mRNA in the presence/in the absence of chemical substance (yeast gene YBR011C): 1.8; level of expressed mRNA in the presence/in the absence of chemical substance (yeast gene YBR020W): 0.5; The level of expressed mRNA in the presence of chemical substance/The level of expressed mRNA in the absence of chemical substance (yeast gene YBR023C): 0.8; The level of expressed mRNA in the presence of chemical substance/The level of expressed mRNA in the absence of chemical substance (yeast gene YBR029C): 0.2; The level of expressed mRNA in the presence of chemical substance/The level of expressed mRNA in the absence of chemical substance (yeast gene YBR183W): 1.5; The level of expressed mRNA in the presence of chemical substance/The level of expressed mRNA in the absence of chemical substance (yeast gene YBR222C): 1.2; The level of expressed mRNA in the presence of chemical substance/The level of expressed mRNA in the absence of chemical substance (yeast gene YBR256C): 1.4; The level of expressed mRNA in the presence of chemical substance/The level of expressed mRNA in the absence of chemical substance (yeast gene YCL009C): 0.9; The level of expressed mRNA in the presence of chemical substance/The level of expressed mRNA in the absence of chemical substance (yeast gene YCL064C): 0.6; level of expressed mRNA in the presence/in the absence of chemical substance (yeast gene YCR010C): 1.6; level of expressed mRNA in the presence/in the absence of chemical substance (yeast gene YCR034W): 0.4; The level of expressed mRNA in the presence of chemical substance/The level of expressed mRNA in the absence of chemical substance (yeast gene YCR048W): 1.1; The level of expressed mRNA in the presence of chemical substance/The level of expressed mRNA in the absence of chemical substance (yeast gene YCR098C): 3.0; The level of expressed mRNA in the presence of chemical substance/The level of expressed mRNA in the absence of chemical substance (yeast gene YDR019C): 0.5; level of expressed mRNA in the presence/in the absence of chemical substance (yeast gene YDR050C): 1.3; level of expressed mRNA in the presence/in the absence of chemical substance (yeast gene YDR073W): 0.9; level of expressed mRNA in the presence/in the absence of chemical substance (yeast gene YDR123C): 0.8; level of expressed mRNA in the presence/in the absence of chemical substance (yeast gene YDR178W): 2.0; level of expressed mRNA in the presence/in the absence of chemical substance (yeast gene YDR277C): 1.2; level of expressed mRNA in the presence/in the absence of chemical substance (yeast gene YDR284C): 1.5; level of expressed mRNA in the presence/in the absence of chemical substance (yeast gene YDR345C): 0.9; The level of expressed mRNA in the presence of chemical substance/The level of expressed mRNA in the absence of chemical substance (yeast gene YDR380W): 0.8; level of expressed mRNA in the presence/in the absence of chemical substance (yeast gene YDR400W): 2.0; level of expressed mRNA in the presence/in the absence of chemical substance (yeast gene YDR408C): 1.0; level of expressed mRNA in the presence/in the absence of chemical substance (yeast gene YDR483W): 1.0; The level of expressed mRNA in the presence of chemical substance/The level of expressed mRNA in the absence of chemical substance (yeast gene YDR497C): 0.5; The level of expressed mRNA in the presence of chemical substance/The level of expressed mRNA in the absence of chemical substance (yeast gene YDR502C): 2.8; The level of expressed mRNA in the presence of chemical substance/The level of expressed mRNA in the absence of chemical substance (yeast gene YDR516C): 1.5; level of expressed mRNA in the presence/in the absence of chemical substance (yeast gene YEL063C): 0.8; level of expressed mRNA in the presence/in the absence of chemical substance (yeast gene YER015W): 0.9; The level of expressed mRNA in the presence of chemical substance/The level of expressed mRNA in the absence of chemical substance (yeast gene YER026C): 0.6; The level of expressed mRNA in the presence of chemical substance/The level of expressed mRNA in the absence of chemical substance (yeast gene YER053C): 1.8; The level of expressed mRNA in the presence of chemical substance/The level of expressed mRNA in the absence of chemical substance (yeast gene YER069W): 0.8; level of expressed mRNA in the presence/in the absence of chemical substance (yeast gene YER081W): 1.9; The level of expressed mRNA in the presence of chemical substance/The level of expressed mRNA in the absence of chemical substance (yeast gene YER096W): 2.3; level of expressed mRNA in the presence/in the absence of chemical substance (yeast gene YER120W): 1.1; The level of expressed mRNA in the presence of chemical substance/The level of expressed mRNA in the absence of chemical substance (yeast gene YER178W): 0.9; level of expressed mRNA in the presence/in the absence of chemical substance (yeast gene YFL011W): 0.7; The level of expressed mRNA in the presence of chemical substance/The level of expressed mRNA in the absence of chemical substance (yeast gene YFL014W): 7.2; The level of expressed mRNA in the presence of chemical substance/The level of expressed mRNA in the absence of chemical substance (yeast gene YFL030W): 6.0; The level of expressed mRNA in the presence of chemical substance/The level of expressed mRNA in the absence of chemical substance (yeast gene YFL031W): 1.3; The level of expressed mRNA in the presence of chemical substance/The level of expressed mRNA in the absence of chemical substance (yeast gene YFL056C): 2.3
